Source: patent US11648315B2, “Silvestrol antibody-drug conjugates and methods of use” (Genentech, Inc., priority 2016, dated 2023)

Legend:
Type in all cases: cell-based
cell lines of Table 7 = test: In vitro efficacy of free drug silvestrol compounds, summary over cell lines of Table 7; settings: summary of Table 7
From the text: (§1) The CellTiter-Glo® Luminescent Cell Viability Assay is a commercially available (Promega Corp., Madison, Wis.), homogeneous assay method based on the recombinant expression of Coleoptera luciferase (U.S. Pat. Nos. 5,583,024; 5,674,713; 5,700,670). This cell proliferation assay determines the number of viable cells in culture based on quantitation of the ATP present, an indicator of metabolically active cells (Crouch et al (1993) J. Immunol. Meth. 160:81-88; U.S. Pat. No. 6,602,677). The CellTiter-Glo® Assay was conducted in 96 well format, making it amenable to automated high-throughput screening (HTS) (Cree et al (1995) AntiCancer Drugs 6:398-404). The homogeneous assay procedure involves adding the single reagent (CellTiter-Glo® Reagent) directly to cells cultured in serum-supplemented medium. Cell washing, removal of medium and multiple pipetting steps are not required. The system detects as few as 15 cells/well in a 384-well format in 10 minutes after adding reagent and mixing. The cells may be treated continuously with ADC, or they may be treated and separated from ADC.
Inhibition of cell proliferation in vitro may be assayed using the CellTiter-Glo™ Luminescent Cell Viability Assay, an embodiment of which is detailed as Example 6. Such assay determines the number of viable cells in culture based on quantitation of ATP present, which is an indication of metabolically active cells (Crouch et al. (1993) J. Immunol. Meth. 160:81-88; U.S. Pat. No. 6,602,677). The assay may be conducted in 96- or 384-well format, making it amenable to automated high-throughput screening (HTS). See Cree et al. (1995) AntiCancer Drugs 6:398-404. The assay procedure involves adding a single reagent (CellTiter-Glo® Reagent) directly to cultured cells. […] The luminescent signal is proportional to the amount of ATP present, which is directly proportional to the number of viable cells present in culture. Data can be recorded by luminometer or CCD camera imaging device. The luminescence output is expressed as relative light units (RLU). […]

MES-SA = test: In vitro efficacy of free drug silvestrol compounds, MES-SA; settings: Homo sapiens; MES-SA cell line
From the text: as §1, with “Cell washing, removal of medium and multiple pipetting steps are not required. The system detects as few as 15 cells/well in a 384-well format in 10 minutes after adding reagent and mixing. The cells may be treated continuously with ADC, or they may be treated and separated from ADC.” left out
(§2) Inhibition of cell proliferation in vitro may be assayed using the CellTiter-Glo™ Luminescent Cell Viability Assay, an embodiment of which is detailed as Example 6. Such assay determines the number of viable cells in culture based on quantitation of ATP present, which is an indication of metabolically active cells (Crouch et al. (1993) J. Immunol. Meth. 160:81-88; U.S. Pat. No. 6,602,677). […] Data can be recorded by luminometer or CCD camera imaging device. The luminescence output is expressed as relative light units (RLU).

BJAB = test: In vitro efficacy of free drug silvestrol compounds, BJAB; settings: Homo sapiens; BJAB cell line
From the text: as §1, with “Cell washing, removal of medium and multiple pipetting steps are not required. The system detects as few as 15 cells/well in a 384-well format in 10 minutes after adding reagent and mixing. The cells may be treated continuously with ADC, or they may be treated and separated from ADC.” left out
as §2

SK-BR-3 cells = test: In vitro cell viability (CellTiter-Glo), SK-BR-3 cells; settings: Homo sapiens, read-out: IC50 free drug
Description: (§3) Generally, the cytotoxic or cytostatic activity of an antibody-drug conjugate (ADC) is measured by: exposing mammalian cells having receptor proteins, e.g. HER2, to the antibody of the ADC in a cell culture medium; culturing the cells for a period from about 6 hours to about 5 days; and measuring cell viability. Cell-based in vitro assays were used to measure viability (proliferation), cytotoxicity, and induction of apoptosis (caspase activation) of the ADC of the invention.
(§4) The CellTiter-Glo® Luminescent Cell Viability Assay is a commercially available (Promega Corp., Madison, Wis.), homogeneous assay method based on the recombinant expression of Coleoptera luciferase (U.S. Pat. Nos. 5,583,024; 5,674,713; 5,700,670). This cell proliferation assay determines the number of viable cells in culture based on quantitation of the ATP present, an indicator of metabolically active cells (Crouch et al (1993) J. Immunol. Meth. 160:81-88; U.S. Pat. No. 6,602,677). […]
(§5) Inhibition of cell proliferation in vitro may be assayed using the CellTiter-Glo™ Luminescent Cell Viability Assay, an embodiment of which is detailed as Example 6. Such assay determines the number of viable cells in culture based on quantitation of ATP present, which is an indication of metabolically active cells (Crouch et al. (1993) J. Immunol. Meth. 160:81-88; U.S. Pat. No. 6,602,677). […]

MES-SA/Dx5 = test: In vitro efficacy of free drug silvestrol compounds, MES-SA/Dx5; settings: Homo sapiens; MES-SA/Dx5 cell line
From the text: as §1, with “Cell washing, removal of medium and multiple pipetting steps are not required. The system detects as few as 15 cells/well in a 384-well format in 10 minutes after adding reagent and mixing. The cells may be treated continuously with ADC, or they may be treated and separated from ADC.” left out
as §2

HCC1569 X2 = test: In vitro efficacy of free drug silvestrol compounds, HCC1569 X2; settings: Homo sapiens; HCC1569 X2 cell line
From the text: as §1, with “Cell washing, removal of medium and multiple pipetting steps are not required. The system detects as few as 15 cells/well in a 384-well format in 10 minutes after adding reagent and mixing. The cells may be treated continuously with ADC, or they may be treated and separated from ADC.” left out
as §2, with “(RLU). […]” for “(RLU).”

NCI-H1781 = test: In vitro efficacy of free drug silvestrol compounds, NCI-H1781; settings: NCI-H1781 cell line
From the text: as §1, with “Cell washing, removal of medium and multiple pipetting steps are not required. The system detects as few as 15 cells/well in a 384-well format in 10 minutes after adding reagent and mixing. The cells may be treated continuously with ADC, or they may be treated and separated from ADC.” left out
as §2

KPL-4 cells = test: In vitro cell viability (CellTiter-Glo), KPL-4 cells; settings: Homo sapiens, KPL4; KPL-4 cell line; read-out: IC50 (nM) free drug
Description: as §3, §4, §5

SW 900 = test: In vitro efficacy of free drug silvestrol compounds, SW 900; settings: Homo sapiens, SW900; SW 900 cell line
From the text: as §1, with “Cell washing, removal of medium and multiple pipetting steps are not required. The system detects as few as 15 cells/well in a 384-well format in 10 minutes after adding reagent and mixing. The cells may be treated continuously with ADC, or they may be treated and separated from ADC.” left out
as §2

HCC1937 = test: In vitro efficacy of free drug silvestrol compounds, HCC1937; settings: Homo sapiens; HCC1937 cell line
From the text: as §1, with “Cell washing, removal of medium and multiple pipetting steps are not required. The system detects as few as 15 cells/well in a 384-well format in 10 minutes after adding reagent and mixing. The cells may be treated continuously with ADC, or they may be treated and separated from ADC.” left out
as §2

T-47D = test: In vitro efficacy of free drug silvestrol compounds, T-47D; settings: Homo sapiens, T47D; T-47D cell line
From the text: as §1, with “Cell washing, removal of medium and multiple pipetting steps are not required. The system detects as few as 15 cells/well in a 384-well format in 10 minutes after adding reagent and mixing. The cells may be treated continuously with ADC, or they may be treated and separated from ADC.” left out
as §2

Row | Compound | IC50s of free drug, in words (cell lines of Table 7) | activity of free drug in vitro (cell lines of Table 7) | IC50 (MES-SA) | IC50 (BJAB) | IC50 (SK-BR-3 cells) | IC50 (MES-SA/Dx5) | IC50 (HCC1569 X2) | IC50 (NCI-H1781) | IC50 (KPL-4 cells) | IC50 (SW 900) | IC50 (HCC1937) | IC50 (T-47D)
1 | COC(=O)[C@H]1[C@@H](O)[C@@]2(O)c3c(OC)cc(O[C@@H]4O[C@@H](CCN)CO[C@H]4OC)cc3O[C@@]2(c2ccc(OC)cc2)[C@@H]1c1ccccc1 [amino silvestrol analog, (1R,2R,3S,3aR,8bS)-methyl 6-(((2S,3R,6S)-6-(2-aminoethyl)-3-methoxy-1,4-dioxan-2-yl)oxy)-1,8b-dihydroxy-8-methoxy-3a-(4-methoxyphenyl)-3-phenyl-2,3,3a,8b-tetrahydro-1H-cyclopenta[b]benzofuran-2-carboxylate] | pM or low nM | active | 1.1 nM | 0.81 nM | 1.6 nM | > 100 nM | 1.3 nM | 1 nM | 1.2 nM | 2.9 nM | 0.66 nM | 1 nM
2 | COc1ccc([C@@]23Oc4cc(O[C@@H]5O[C@@H]([C@H](O)CO)CO[C@H]5OC)cc(OC)c4[C@]2(O)[C@H](O)[C@H](C(=O)NCCN)[C@H]3c2ccccc2)cc1 [silvestrol amine, (1R,2R,3S,3aR,8bS)-N-(2-aminoethyl)-6-(((2S,3R,6R)-6-((R)-1,2-dihydroxyethyl)-3-methoxy-1,4-dioxan-2-yl)oxy)-1,8b-dihydroxy-8-methoxy-3a-(4-methoxyphenyl)-3-phenyl-2,3,3a,8b-tetrahydro-1H-cyclopenta[b]benzofuran-2-carboxamide] | – | inactive | > 100 nM | > 200 nM | – | > 200 nM | > 200 nM | > 200 nM | > 200 nM | > 200 nM | > 200 nM | > 200 nM
